Reference: patent publication US10844049B2, “GLP-1R agonists and uses thereof” (QILU REGOR THERAPEUTICS INC., priority 2018, dated 2020)

Each compound was assayed against GLP1R (Homo sapiens, UniProt P43220) (assay: GLP1R cAMP HTRF assay, HEK293/GLP-1R/CRE/Luc (HEK293T cells)). Details: read-out: EC50.
Type: cell-based
Outline: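 cAMP accumulation via HTRF after 30 min, 37 °C exposure of 1000 receptor-expressing cells/well to compound (0.5% DMSO final) in IBMX (500 μM)/0.1% BSA DPBS.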

Sequence of GLP1R (P43220 24-463): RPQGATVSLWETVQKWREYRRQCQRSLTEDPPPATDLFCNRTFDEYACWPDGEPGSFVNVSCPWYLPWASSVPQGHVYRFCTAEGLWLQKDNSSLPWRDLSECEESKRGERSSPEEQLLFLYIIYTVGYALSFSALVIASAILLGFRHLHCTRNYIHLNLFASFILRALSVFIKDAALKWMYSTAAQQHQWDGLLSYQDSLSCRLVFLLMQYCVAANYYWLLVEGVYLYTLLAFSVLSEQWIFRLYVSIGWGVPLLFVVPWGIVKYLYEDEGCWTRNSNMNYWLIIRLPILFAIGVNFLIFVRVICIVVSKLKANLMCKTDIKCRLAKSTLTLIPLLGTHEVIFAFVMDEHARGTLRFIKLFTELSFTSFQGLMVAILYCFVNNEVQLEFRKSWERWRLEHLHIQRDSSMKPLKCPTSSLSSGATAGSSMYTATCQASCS

| EC50 | SMILES |
| --- | --- |
| ≤ 15 nM | O=C(O)c1ccc2nc(CN3CC=C(c4ccnc(OCc5ccc(C#CC6CC6)cc5F)n4)CC3)n(C[C@@H]3CCO3)c2c1 [Compound 201, (S)-2-((4-(2-((4-(cyclopropylethynyl)-2-fluorobenzyl)oxy)pyrimidin-4-yl)-3,6-dihydropyridin-1(2H)-yl)methyl)-1-(oxetan-2-ylmethyl)-1H-benzo[d]imidazole-6-carboxylic acid] |
| ≤ 150 nM | O=C(O)c1ccc2nc(CN3CC=C(c4ccc(F)c(OCc5ccc(C#CC6CC6)cc5F)c4)CC3)n(C[C@@H]3CCO3)c2c1 [Compound 202, (S)-2-((4-(3-((4-(cyclopropylethynyl)-2-fluorobenzyl)oxy)-4-fluorophenyl)-3,6-dihydropyridin-1(2H)-yl)methyl)-1-(oxetan-2-ylmethyl)-1H-benzo[d]imidazole-6-carboxylic acid] |
| ≤ 150 nM | O=C(O)c1ccc2nc(CN3CC=C(c4cc(F)c(F)c(OCc5ccc(C#CC6CC6)cc5F)c4)CC3)n(C[C@@H]3CCO3)c2c1 [Compound 203, (S)-2-((4-(3-(4-(cyclopropylethynyl)-2-fluorobenzyloxy)-4,5-difluorophenyl)-5,6-dihydropyridin-1(2H)-yl)methyl)-1-(oxetan-2-ylmethyl)-1H-benzo[d]imidazole-6-carboxylic acid] |
| ≤ 15 nM | N#Cc1ccc(COc2cc(C3=CCN(Cc4nc5ccc(C(=O)O)cc5n4C[C@@H]4CCO4)CC3)ccc2F)c(F)c1 [Compound 204, (S)-2-((4-(3-((4-cyano-2-fluorobenzyl)oxy)-4-fluorophenyl)-3,6-dihydropyridin-1(2H)-yl)methyl)-1-(oxetan-2-ylmethyl)-1H-benzo[d]imidazole-6-carboxylic acid] |
| ≤ 150 nM | N#Cc1ccc(COc2cc(C3=CCN(Cc4nc5ccc(C(=O)O)cc5n4C[C@@H]4CCO4)CC3)cc(F)c2F)c(F)c1 [Compound 205, (S)-2-((4-(3-(4-cyano-2-fluorobenzyloxy)-4,5-difluorophenyl)-5,6-dihydropyridin-1(2H)-yl)methyl)-1-(oxetan-2-ylmethyl)-1H-benzo[d]imidazole-6-carboxylic acid] |
| ≤ 15 nM | N#Cc1ccc(COc2ccc(F)c(C3=CCN(Cc4nc5ccc(C(=O)O)cc5n4C[C@@H]4CCO4)CC3)c2)c(F)c1 [Compound 206, (S)-2-((4-(5-((4-cyano-2-fluorobenzyl)oxy)-2-fluorophenyl)-3,6-dihydropyridin-1(2H)-yl)methyl)-1-(oxetan-2-ylmethyl)-1H-benzo[d]imidazole-6-carboxylic add] |
| ≤ 150 nM | O=C(O)c1ccc2nc(CN3CC=C(c4cc(OCc5ccc(C#CC6CC6)cc5F)ccc4F)CC3)n(C[C@@H]3CCO3)c2c1 [Compound 208] |
| ≤ 15 nM | O=C(O)c1ccc2nc(CN3CC=C(c4ncc(F)c(OCc5ccc(C#CC6CC6)cc5F)n4)CC3)n(C[C@@H]3CCO3)c2c1 [Compound 209, (S)-2-((4-(4-((4-(cyclopropylethynyl)-2-fluorobenzyl)oxy)-5-fluoropyrimidin-2-yl)-3,6-dihydropyridin-1(2H)-yl)methyl)-1-(oxetan-2-ylmethyl)-1H-benzo[d]imidazole-6-carboxylic add] |
| ≤ 15 nM | N#Cc1ccc(COc2ncc(F)c(C3=CCN(Cc4nc5ccc(C(=O)O)cc5n4C[C@@H]4CCO4)CC3)n2)c(F)c1 [Compound 210, (S)-2-((4-(2-(4-cyano-2-fluorobenzyloxy)-5-fluoropyrimidin-4-yl)-5,6-dihydropyridin-1(2H)-yl)methyl)-1-(oxetan-2-ylmethyl)-1H-benzo[d]imidazole-6-carboxylic add] |
| ≤ 15 nM | O=C(O)c1ccc2nc(CN3CC=C(c4nc(OCc5ccc(C#CC6CC6)cc5F)ncc4F)CC3)n(C[C@@H]3CCO3)c2c1 [Compound 211, (S)-2-((4-(2-(4-(cyclopropylethynyl)-2-fluorobenzyloxy)-5-fluoropyrimidin-4-yl)-5,6-dihydropyridin-1(2H)-yl)methyl)-1-(oxetan-2-ylmethyl)-1H-benzo[d]imidazole-6-carboxylic acid] |
| ≤ 15 nM | N#Cc1ccc(COc2nc(C3=CCN(Cc4nc5ccc(C(=O)O)cc5n4C[C@@H]4CCO4)CC3)c(F)cc2F)c(F)c1 [Compound 212, (S)-2-((6-((4-cyano-2-fluorobenzyl)oxy)-3,5-difluoro-3′,6′-dihydro-[2,4′-bipyridin]-1′(2′H)-yl)methyl)-1-(oxetan-2-ylmethyl)-1H-benzo[d]imidazole-6-carboxylic add] |
| ≤ 15 nM | O=C(O)c1ccc2nc(CN3CC=C(c4nc(OCc5ccc(C#CC6CC6)cc5F)c(F)cc4F)CC3)n(C[C@@H]3CCO3)c2c1 [Compound 213, (S)-2-((4-(6-(4-(cyclopropylethynyl)-2-fluorobenzyloxy)-3,5-difluoropyridin-2-yl)-5,6-dihydropyridin-1(2H)-yl)methyl)-3-(oxetan-2-ylmethyl)-3H-benzo[d]imidazole-5-carboxylic add] |
| ≤ 150 nM | O=C(O)c1ccc2nc(CN3CC=C(c4nccc(OCc5ccc(F)cc5F)n4)CC3)n(C[C@@H]3CCO3)c2c1 [Compound 214, (S)-2-((4-(4-((2,4-difluorobenzyl)oxy)pyrimidin-2-yl)-3,6-dihydropyridin-1(2H)-yl)methyl)-1-(oxetan-2-ylmethyl)-1H-benzo[d]imidazole-6-carboxylic add] |
| ≤ 150 nM | O=C(O)c1ccc2nc(CN3CC=C(c4ccnc(OCc5ccc(F)cc5F)n4)CC3)n(C[C@@H]3CCO3)c2c1 [Compound 215, (S)-2-((4-(2-((2H-difluorobenzyl)oxy)pyrimidin-4-yl)-3,6-dihydropyridin-1(2H)-yl)methyl)-1-(oxetan-2-ylmethyl)-1H-benzo[d]imidazole-6-carboxylic acid] |
| ≤ 15 nM | O=C(O)c1ccc2nc(CN3CC=C(c4nc(OCc5ccc(F)cc5F)c(F)cc4F)CC3)n(C[C@@H]3CCO3)c2c1 [Compound 216, (S)-2-((4-(6-(2,4-difluorobenzyloxy)-3,5-difluoropyridin-2-yl)-5,6-dihydropyridin-1(2H)-yl)methyl)-1-(oxetan-2-ylmethyl)-1H-benzo[d]imidazole-6-carboxylic acid] |
| ≤ 15 nM | N#Cc1ccc(CNc2nc(C3=CCN(Cc4nc5ccc(C(=O)O)cc5n4C[C@@H]4CCO4)CC3)c(F)cc2F)c(F)c1 [Compound 217, (S)-2-((6-((4-cyano-2-fluorobenzyl)amino)-3,5-difluoro-3′,6′-dihydro-[2,4′-bipyridin]-1′(2′H)-yl)methyl)-1-(oxetan-2-ylmethyl)-1H-benzo[d]imidazole-6-carboxylic add] |
| ≤ 1000 nM | O=C(O)c1ccc2nc(CN3CC=C(c4ccnc(OCc5ccc(C(F)(F)F)nc5)n4)CC3)n(C[C@@H]3CCO3)c2c1 [Compound 219, (S)-1-(oxetan-2-ylmethyl)-2-((4-(2-((6-(trifluoromethyl)pyridin-3-yl)methoxy)pyrimidin-4-yl)-5,6-dihydropyridin-1(2H)-yl)methyl)-1H-benzo[d]imidazole-6-carboxylic acid] |
| ≤ 15 nM | O=C(O)c1ccc2nc(CN3CC=C(c4nc(OCc5ccc(C(F)(F)F)nc5)c(F)cc4F)CC3)n(C[C@@H]3CCO3)c2c1 [Compound 220, (S)-2-((3,5-difluoro-6-((6-(trifluoromethyl)pyridin-3-yl)methoxy)-5′,6′-dihydro-[2,4′-bipyridin]-1′(2′H)-yl)methyl)-1-(oxetan-2-ylmethyl)-1H-benzo[d]imidazole-6-carboxylic acid] |
| ≤ 15 nM | N#Cc1ccc(COc2ccc(F)c(C3=CCN(Cc4nc5ccc(C(=O)O)cc5n4C[C@@H]4CCO4)CC3)n2)c(F)c1 [Compound 223, (S)-2-((6-((4-cyano-2-fluorobenzyl)oxy)-3-fluoro-3′,6′-dihydro-[2,4′-bipyridin]-1(2′H)-yl)methyl)-1-(oxetan-2-ylmethyl)-1H-benzo[d]imidazole-6-carboxylic acid] |
| ≤ 15 nM | N#Cc1ccc(COc2cccc(N3CCC(Cc4nc5ccc(C(=O)O)cc5n4C[C@@H]4CCO4)CC3)n2)c(F)c1 [Compound 226, (S)-2-((l-(6-((4-cyano-2-fluorobenzyl)oxy)pyridin-2-yl)piperidin-4-yl)methyl)-1-(oxetan-2-ylmethyl)-1H-benzo[d]imidazole-6-carboxylic acid] |
| ≤ 15 nM | O=C(O)c1ccc2nc(CC3CCN(c4cccc(OCc5ccc(F)cc5F)n4)CC3)n(C[C@@H]3CCO3)c2n1 [Compound 229, (S)-2-((l-(6-((2,4-difluorobenzyl)oxy)pyridin-2-yl)piperidin-4-yl)methyl)-3-(oxetan-2-ylmethyl)-3H-imidazo[4,5-b]pyridine-5-carboxylic acid] |
| ≤ 150 nM | O=C(O)c1ccc2nc(CC3CCN(c4cccc(OCc5ccc(Cl)cn5)n4)CC3)n(C[C@@H]3CCO3)c2n1 [Compound 230, (S)-2-((l-(6-((5-chloropyridin-2-yl)methoxy)pyridin-2-yl)piperidin-4-yl)methyl)-3-(oxetan-2-ylmethyl)-3H-imidazo[4,5-b]pyridine-5-carboxylic acid] |
| ≤ 150 nM | N#Cc1ccc(COc2cccc(N3CCC(Cc4nc5ccc(C(=O)O)nc5n4C[C@@H]4CCO4)CC3)n2)nc1 [Compound 231, (S)-2-((l-(6-((5-cyanopyridin-2-yl)methoxy)pyridin-2-yl)piperidin-4-yl)methyl)-3-(oxetan-2-ylmethyl)-3H-imidazo[4,5-b]pyridine-5-carboxylic acid] |
| ≤ 150 nM | O=C(O)c1ccc2nc(CC3CCN(c4cccc(OCc5ccc(Cl)cn5)n4)CC3)n(C[C@@H]3CCO3)c2c1F [Compound 232, (S)-2-((l-(6-((5-chloropyridin-2-yl)methoxy)pyridin-2-yl)piperidin-4-yl)methyl)-7-fluoro-1-(oxetan-2-ylmethyl)-1H-benzo[d]imidazole-6-carboxylic acid] |
| ≤ 150 nM | N#Cc1ccc(COc2cccc(N3CCC(Cc4nc5ccc(C(=O)O)c(F)c5n4C[C@@H]4CCO4)CC3)n2)nc1 [Compound 233, (S)-2-((l-(6-((5-cyanopyridin-2-yl)methoxy)pyridin-2-yl)piperidin-4-yl)methyl)-7-fluoro-1-(oxetan-2-ylmethyl)-1H-benzo[d]imidazole-6-carboxylic add] |
